Test results taken from ChEMBL document CHEMBL2062364, “Discovery and optimization of new benzimidazole- and benzoxazole-pyrimidone selective PI3Kβ inhibitors for the treatment of phosphatase and TENsin homologue (PTEN)-deficient cancers” (J Med Chem, 2012).
≈ marks a conversion by molar mass, not a printed value.

Assays:
[1] = Inhibition of mTORC2-mediated Akt phosphorylation at Ser473 residue in PTEN-deficient human PC3 cells after 2 hrs by Western blot analysis; type: cell-based; settings: PC-3, 2 h
[2] = molecular target: T1, Phosphatidylinositol 4,5-bisphosphate 3-kinase catalytic subunit beta isoform (Homo sapiens, UniProt P42338); test: Inhibition of N-terminus poly-His tagged human PI3Kbeta expressed in baculovirus infected insect […] cells coexpressing p85alpha using PI(4,5)P2 as substrate preincubated with compound for 15 mins measured after 10 mins by HTRF assay
T1 sequence (P42338 whole entry, canonical isoform): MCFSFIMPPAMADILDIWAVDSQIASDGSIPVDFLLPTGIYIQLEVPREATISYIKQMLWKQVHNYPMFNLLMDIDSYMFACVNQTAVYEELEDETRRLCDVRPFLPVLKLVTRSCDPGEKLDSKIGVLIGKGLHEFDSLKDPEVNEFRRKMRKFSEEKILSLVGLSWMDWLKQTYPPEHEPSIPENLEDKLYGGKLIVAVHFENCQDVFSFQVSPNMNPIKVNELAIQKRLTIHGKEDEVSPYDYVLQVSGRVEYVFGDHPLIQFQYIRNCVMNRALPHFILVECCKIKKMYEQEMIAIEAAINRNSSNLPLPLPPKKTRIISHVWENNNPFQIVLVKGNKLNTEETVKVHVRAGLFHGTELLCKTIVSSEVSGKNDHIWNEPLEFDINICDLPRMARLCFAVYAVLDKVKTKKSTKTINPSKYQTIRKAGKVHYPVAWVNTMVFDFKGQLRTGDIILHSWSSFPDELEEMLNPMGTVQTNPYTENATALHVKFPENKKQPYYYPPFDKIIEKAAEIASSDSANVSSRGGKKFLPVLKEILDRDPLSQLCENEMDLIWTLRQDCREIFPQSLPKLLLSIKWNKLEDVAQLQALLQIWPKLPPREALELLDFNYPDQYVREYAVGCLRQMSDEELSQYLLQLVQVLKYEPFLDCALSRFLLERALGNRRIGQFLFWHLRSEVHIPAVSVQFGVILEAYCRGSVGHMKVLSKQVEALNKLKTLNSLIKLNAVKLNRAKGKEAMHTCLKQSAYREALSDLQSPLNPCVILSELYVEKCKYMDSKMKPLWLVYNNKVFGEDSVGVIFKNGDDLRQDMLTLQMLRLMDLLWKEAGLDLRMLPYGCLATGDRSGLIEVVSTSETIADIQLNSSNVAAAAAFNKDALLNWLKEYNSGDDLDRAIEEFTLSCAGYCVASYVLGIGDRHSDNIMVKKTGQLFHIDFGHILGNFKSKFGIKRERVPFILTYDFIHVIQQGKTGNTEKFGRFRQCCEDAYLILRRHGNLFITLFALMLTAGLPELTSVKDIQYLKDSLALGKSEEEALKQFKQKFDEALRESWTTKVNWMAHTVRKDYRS

[3] = molecular target: T1, Phosphatidylinositol 4,5-bisphosphate 3-kinase catalytic subunit beta isoform; test: Inhibition of human PI3Kbeta-mediated Akt phosphorylation at Ser473 residue expressed in PTEN-deficient human PC3 cells by chemiluminescence assay; type: cell-based, PC-3
[4] = molecular target: T1, Phosphatidylinositol 4,5-bisphosphate 3-kinase catalytic subunit beta isoform; test: Inhibition of human PI3Kbeta-mediated Akt phosphorylation at T308 residue expressed in PTEN-deficient human PC3 cells after 2 hrs by Western blot analysis; type: cell-based, PC-3
Cytochrome P450 3A4 = Cytochrome P450 3A4 (Homo sapiens, UniProt P08684); test: Inhibition of human recombinant CPY3A4
Sequence of Cytochrome P450 3A4 (P08684 whole entry): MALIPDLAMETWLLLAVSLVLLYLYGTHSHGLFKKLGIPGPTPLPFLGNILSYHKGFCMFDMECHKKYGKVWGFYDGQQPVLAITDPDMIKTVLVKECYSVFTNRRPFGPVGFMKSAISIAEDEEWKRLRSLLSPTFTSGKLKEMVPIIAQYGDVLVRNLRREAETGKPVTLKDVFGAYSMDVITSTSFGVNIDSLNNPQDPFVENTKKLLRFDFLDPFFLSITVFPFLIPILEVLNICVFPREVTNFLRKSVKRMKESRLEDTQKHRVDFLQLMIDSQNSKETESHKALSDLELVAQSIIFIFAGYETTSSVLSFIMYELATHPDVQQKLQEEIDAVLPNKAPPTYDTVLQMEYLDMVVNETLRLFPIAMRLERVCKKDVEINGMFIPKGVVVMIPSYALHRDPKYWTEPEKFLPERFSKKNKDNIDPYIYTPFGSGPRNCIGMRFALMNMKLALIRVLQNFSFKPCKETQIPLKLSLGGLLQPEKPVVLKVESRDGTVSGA

[5] = Drug metabolism in human liver microsomes; type: ADME, Microsome; settings: read-out: Drug metabolism
[6] = molecular target: Phosphatidylinositol 4,5-bisphosphate 3-kinase catalytic subunit gamma isoform (Homo sapiens, UniProt P48736); test: Inhibition of N-terminus poly-His tagged human PI3Kgamma expressed in baculovirus infected insect sf9 cells using PI(4,5)P2 as substrate preincubated with compound for 15 mins measured after 10 mins by HTRF assay
Sequence of Phosphatidylinositol 4,5-bisphosphate 3-kinase catalytic subunit gamma isoform (P48736 whole entry, canonical isoform): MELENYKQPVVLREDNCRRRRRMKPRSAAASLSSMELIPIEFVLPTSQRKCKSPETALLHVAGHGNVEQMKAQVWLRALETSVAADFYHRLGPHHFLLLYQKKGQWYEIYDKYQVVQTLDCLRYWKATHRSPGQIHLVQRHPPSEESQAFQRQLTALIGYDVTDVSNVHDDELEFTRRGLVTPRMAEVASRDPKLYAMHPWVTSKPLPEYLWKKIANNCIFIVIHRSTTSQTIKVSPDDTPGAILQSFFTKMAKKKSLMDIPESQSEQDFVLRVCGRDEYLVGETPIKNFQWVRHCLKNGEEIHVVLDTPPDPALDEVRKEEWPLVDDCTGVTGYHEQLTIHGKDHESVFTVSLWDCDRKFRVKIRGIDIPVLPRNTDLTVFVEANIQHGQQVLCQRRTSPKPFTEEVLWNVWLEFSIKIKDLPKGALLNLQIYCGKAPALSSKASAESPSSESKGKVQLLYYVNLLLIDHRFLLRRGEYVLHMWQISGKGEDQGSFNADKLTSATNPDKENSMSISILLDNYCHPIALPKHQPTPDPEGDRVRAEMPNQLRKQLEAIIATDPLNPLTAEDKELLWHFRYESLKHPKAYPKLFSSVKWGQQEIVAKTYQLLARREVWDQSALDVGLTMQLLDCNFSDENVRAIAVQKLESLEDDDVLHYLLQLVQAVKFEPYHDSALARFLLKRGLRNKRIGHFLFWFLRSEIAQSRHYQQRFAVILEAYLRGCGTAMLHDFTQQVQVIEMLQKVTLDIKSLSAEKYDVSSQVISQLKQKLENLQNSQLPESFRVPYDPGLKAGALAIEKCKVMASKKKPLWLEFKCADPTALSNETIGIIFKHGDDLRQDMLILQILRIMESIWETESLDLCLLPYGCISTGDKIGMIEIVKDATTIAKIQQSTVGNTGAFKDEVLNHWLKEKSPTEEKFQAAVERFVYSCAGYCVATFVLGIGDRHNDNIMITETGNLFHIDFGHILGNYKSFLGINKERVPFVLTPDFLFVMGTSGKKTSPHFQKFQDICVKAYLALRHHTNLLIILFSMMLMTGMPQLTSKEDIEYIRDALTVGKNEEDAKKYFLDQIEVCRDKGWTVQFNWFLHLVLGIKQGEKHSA

[7] = Drug metabolism in mouse liver microsomes; type: ADME, Microsome; settings: read-out: Drug metabolism
[8] = Apparent permeability of the compound across human Caco2 cells; type: ADME, cell-based; settings: Caco-2
[9] = molecular target: Serine/threonine-protein kinase mTOR (Homo sapiens, UniProt P42345); test: Inhibition of mTOR
[10] = molecular target: Phosphatidylinositol 4,5-bisphosphate 3-kinase catalytic subunit alpha isoform (Homo sapiens, UniProt P42336); test: Inhibition of N-terminus poly-His tagged human PI3Kalpha expressed in baculovirus infected insect sf9 cells coexpressing p85alpha using PI(4,5)P2 as substrate preincubated with compound for 15 mins measured after 10 mins by HTRF assay
Sequence of Phosphatidylinositol 4,5-bisphosphate 3-kinase catalytic subunit alpha isoform (P42336 whole entry, canonical isoform): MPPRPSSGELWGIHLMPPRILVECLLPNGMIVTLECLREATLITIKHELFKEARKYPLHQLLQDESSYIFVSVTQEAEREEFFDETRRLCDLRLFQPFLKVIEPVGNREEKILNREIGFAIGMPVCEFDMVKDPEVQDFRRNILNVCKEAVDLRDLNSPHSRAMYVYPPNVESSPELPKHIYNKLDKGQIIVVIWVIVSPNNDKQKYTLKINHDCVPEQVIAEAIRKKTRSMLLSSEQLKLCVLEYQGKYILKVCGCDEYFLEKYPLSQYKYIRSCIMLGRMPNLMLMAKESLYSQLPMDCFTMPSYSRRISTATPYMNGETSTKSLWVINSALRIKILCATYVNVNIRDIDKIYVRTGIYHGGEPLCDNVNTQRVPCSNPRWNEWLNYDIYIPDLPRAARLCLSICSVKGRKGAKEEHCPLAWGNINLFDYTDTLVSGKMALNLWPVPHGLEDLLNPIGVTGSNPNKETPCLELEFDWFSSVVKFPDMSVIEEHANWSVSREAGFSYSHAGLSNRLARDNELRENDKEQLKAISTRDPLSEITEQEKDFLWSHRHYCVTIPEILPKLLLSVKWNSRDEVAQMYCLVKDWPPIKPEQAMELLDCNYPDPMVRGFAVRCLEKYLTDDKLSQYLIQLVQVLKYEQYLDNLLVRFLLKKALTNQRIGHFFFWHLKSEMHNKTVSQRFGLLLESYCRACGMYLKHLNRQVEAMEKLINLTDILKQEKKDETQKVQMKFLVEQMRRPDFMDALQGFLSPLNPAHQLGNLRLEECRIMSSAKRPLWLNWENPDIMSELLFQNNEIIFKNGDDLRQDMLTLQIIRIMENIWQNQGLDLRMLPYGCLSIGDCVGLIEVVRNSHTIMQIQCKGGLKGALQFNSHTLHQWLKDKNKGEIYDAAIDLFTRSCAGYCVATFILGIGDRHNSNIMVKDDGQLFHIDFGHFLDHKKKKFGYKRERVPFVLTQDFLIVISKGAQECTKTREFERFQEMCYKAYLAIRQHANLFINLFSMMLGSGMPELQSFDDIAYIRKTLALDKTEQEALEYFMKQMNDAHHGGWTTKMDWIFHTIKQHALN

[11] = molecular target: T2, Phosphatidylinositol 4,5-bisphosphate 3-kinase catalytic subunit delta isoform (Homo sapiens, UniProt O00329); test: Inhibition of poly-His tagged human PI3Kdelta expressed in baculovirus infected insect sf9 cells coexpressing p85alpha using PI(4,5)P2 as substrate preincubated with compound for 15 mins measured after 10 mins by HTRF assay
T2 sequence (O00329 whole entry): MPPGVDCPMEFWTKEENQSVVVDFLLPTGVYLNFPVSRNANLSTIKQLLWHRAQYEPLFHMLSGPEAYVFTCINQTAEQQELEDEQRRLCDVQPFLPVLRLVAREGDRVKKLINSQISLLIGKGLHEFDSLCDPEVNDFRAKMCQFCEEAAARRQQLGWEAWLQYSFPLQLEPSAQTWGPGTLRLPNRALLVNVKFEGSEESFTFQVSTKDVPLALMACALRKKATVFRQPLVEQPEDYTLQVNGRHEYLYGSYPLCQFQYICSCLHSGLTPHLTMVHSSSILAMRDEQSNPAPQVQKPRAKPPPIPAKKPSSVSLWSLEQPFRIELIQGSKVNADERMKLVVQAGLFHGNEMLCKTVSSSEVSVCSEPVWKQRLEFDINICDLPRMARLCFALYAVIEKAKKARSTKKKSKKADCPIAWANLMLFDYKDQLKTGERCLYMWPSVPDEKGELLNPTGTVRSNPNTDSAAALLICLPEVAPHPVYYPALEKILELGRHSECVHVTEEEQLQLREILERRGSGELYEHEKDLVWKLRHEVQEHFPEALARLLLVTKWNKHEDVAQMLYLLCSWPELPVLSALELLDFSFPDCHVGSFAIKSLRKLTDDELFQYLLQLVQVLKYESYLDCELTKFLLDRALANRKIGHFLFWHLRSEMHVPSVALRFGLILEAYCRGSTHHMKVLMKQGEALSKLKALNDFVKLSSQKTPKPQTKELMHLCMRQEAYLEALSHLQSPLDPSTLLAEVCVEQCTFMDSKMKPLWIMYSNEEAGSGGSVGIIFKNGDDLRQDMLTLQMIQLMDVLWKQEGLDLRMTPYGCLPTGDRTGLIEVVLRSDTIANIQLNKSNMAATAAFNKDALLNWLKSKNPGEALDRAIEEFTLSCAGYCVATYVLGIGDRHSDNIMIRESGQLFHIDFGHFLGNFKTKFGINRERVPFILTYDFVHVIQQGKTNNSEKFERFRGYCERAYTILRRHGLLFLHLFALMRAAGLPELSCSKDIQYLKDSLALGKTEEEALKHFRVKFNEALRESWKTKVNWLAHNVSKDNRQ

[12] = Thermodynamic solubility of the compound in phosphate buffer at pH 7.4 after 16 hrs by HPLC analysis; type: physicochemical; settings: read-out: Therm_solubility

SMILES | IC50 [1] [nM] | IC50 [2] [nM] | IC50 [3] [nM] | IC50 [4] [nM] | IC50 (Cytochrome P450 3A4) [nM] | metabolised [5] [%] | IC50 [6] [nM] | metabolised [7] [%] | Papp [8] [×10⁻⁶ cm/s] | IC50 [9] [nM] | IC50 [10] [nM] | IC50 [11] [nM] | solubility thermodynamic at 16 h [12] [µM]
Cc1cc(C(C)Nc2ccccc2)c2oc(N3CCOCC3)cc(=O)c2c1 (centres undefined) | 3 | 28 | 3 | 3 | – | – | – | – | – | – | – | – | –
Cn1c(Cc2nc(N3CCOCC3)cc(=O)[nH]2)nc2cc(F)ccc21 | – | 82 | 16 | – | > 40000 | 39 | > 10000 | 20 | 3.1 | > 10000 | > 10000 | 855 | 3 (≈ 1.03 µg/mL)
O=c1cc(N2CCOCC2)nc(Cc2nc3cc(Br)ccc3[nH]2)[nH]1 | – | 91 | 85 | – | > 40000 | 75 | > 10000 | 27 | – | > 10000 | 5460 | 442 | 3 (≈ 1.17 µg/mL)
O=c1cc(N2CCOCC2)nc(Cc2nc3ccc(Cl)cc3[nH]2)[nH]1 | – | 99 | 63 | – | > 40000 | 78 | > 10000 | 35 | – | > 10000 | 5650 | 247 | 3 (≈ 1.04 µg/mL)
CCn1c(Cc2nc(N3CCOCC3)cc(=O)[nH]2)nc2ccccc21 | – | 72 | 26 | – | > 40000 | 60 | 8270 | 48 | 0.5 | > 10000 | 1000 | 225 | 221 (≈ 75 µg/mL)
O=c1cc(N2CCOCC2)nc(Cc2nc3ccccc3n2-c2ccccc2)[nH]1 | – | 75 | 8 | – | > 40000 | 98 | > 10000 | 100 | 4.4 | > 10000 | 6790 | 36 | 397 (≈ 154 µg/mL)
O=c1cc(N2CCOCC2)nc(Cc2nc3c(-c4ccccc4)cccc3[nH]2)[nH]1 | – | 10 | 65 | – | > 40000 | 78 | > 10000 | 51 | 0.1 | > 10000 | 5500 | 180 | 3 (≈ 1.16 µg/mL)
Cn1c(Cc2nc(N3CCOCC3)cc(=O)[nH]2)nc2c(-c3ccccc3)cccc21 | – | 57 | 26 | – | > 40000 | 41 | > 10000 | 40 | 11.4 | > 10000 | 314 | 274 | –
Cn1c(Cc2nc(N3CCOCC3)cc(=O)[nH]2)nc2cccc(-c3ccccc3)c21 | – | 60 | 17 | – | > 40000 | 57 | > 10000 | 55 | 3.9 | > 10000 | 4580 | 181 | 2 (≈ 0.803 µg/mL)
O=c1cc(N2CCOCC2)nc(Cc2nc3cc(F)ccc3o2)[nH]1 | – | 46 | 26 | – | > 40000 | 47 | > 10000 | 23 | 16 | > 10000 | > 10000 | 854 | 3 (≈ 0.991 µg/mL)
O=c1cc(N2CCOCC2)nc(Cc2nc3c(-c4ccccc4)cccc3o2)[nH]1 | – | 19 | 13 | – | – | 40 | > 10000 | 26 | 31 | > 10000 | 7750 | 373 | 3 (≈ 1.17 µg/mL)
O=c1cc(N2CCOCC2)nc(Cc2nc3cccc(-c4ccccc4)c3o2)[nH]1 | – | 90 | 177 | – | > 40000 | 57 | > 10000 | 61 | 32.3 | > 10000 | > 10000 | 1180 | 3 (≈ 1.17 µg/mL)
O=c1cc(N2CCOCC2)nc(Cc2nc3c(-c4cccs4)cccc3o2)[nH]1 | – | 46 | 22 | – | 19000 | 60 | 5740 | 79 | 25.5 | > 10000 | 4360 | 398 | 3 (≈ 1.18 µg/mL)
O=c1cc(N2CCOCC2)nc(Cc2nc3c(-c4ccccc4)c(F)ccc3o2)[nH]1 | – | 8 | 6 | – | > 40000 | 18 | > 10000 | 17 | 37.1 | > 10000 | > 10000 | 151 | 15 (≈ 6.1 µg/mL)
O=c1cc(N2CCOCC2)nc(Cc2nc3ccccc3o2)[nH]1 | – | 82 | 62 | – | > 40000 | 41 | > 10000 | 7 | 19.9 | > 10000 | > 10000 | 779 | 160 (≈ 50 µg/mL)
